We go through 15 molecules from patent US11370794B2, “Toll-like receptor antagonist compounds and methods of use” (Dynavax Technologies Corporation, priority 2016, dated 2022).

One assay deals with T1, human TLR9 (Homo sapiens, UniProt Q9NR96).
T1 construct: endogenous in cells; host or cells: primary human B cells (CD19 microbeads) from buffy coats of healthy donors
T1 sequence (Q9NR96 26-1032): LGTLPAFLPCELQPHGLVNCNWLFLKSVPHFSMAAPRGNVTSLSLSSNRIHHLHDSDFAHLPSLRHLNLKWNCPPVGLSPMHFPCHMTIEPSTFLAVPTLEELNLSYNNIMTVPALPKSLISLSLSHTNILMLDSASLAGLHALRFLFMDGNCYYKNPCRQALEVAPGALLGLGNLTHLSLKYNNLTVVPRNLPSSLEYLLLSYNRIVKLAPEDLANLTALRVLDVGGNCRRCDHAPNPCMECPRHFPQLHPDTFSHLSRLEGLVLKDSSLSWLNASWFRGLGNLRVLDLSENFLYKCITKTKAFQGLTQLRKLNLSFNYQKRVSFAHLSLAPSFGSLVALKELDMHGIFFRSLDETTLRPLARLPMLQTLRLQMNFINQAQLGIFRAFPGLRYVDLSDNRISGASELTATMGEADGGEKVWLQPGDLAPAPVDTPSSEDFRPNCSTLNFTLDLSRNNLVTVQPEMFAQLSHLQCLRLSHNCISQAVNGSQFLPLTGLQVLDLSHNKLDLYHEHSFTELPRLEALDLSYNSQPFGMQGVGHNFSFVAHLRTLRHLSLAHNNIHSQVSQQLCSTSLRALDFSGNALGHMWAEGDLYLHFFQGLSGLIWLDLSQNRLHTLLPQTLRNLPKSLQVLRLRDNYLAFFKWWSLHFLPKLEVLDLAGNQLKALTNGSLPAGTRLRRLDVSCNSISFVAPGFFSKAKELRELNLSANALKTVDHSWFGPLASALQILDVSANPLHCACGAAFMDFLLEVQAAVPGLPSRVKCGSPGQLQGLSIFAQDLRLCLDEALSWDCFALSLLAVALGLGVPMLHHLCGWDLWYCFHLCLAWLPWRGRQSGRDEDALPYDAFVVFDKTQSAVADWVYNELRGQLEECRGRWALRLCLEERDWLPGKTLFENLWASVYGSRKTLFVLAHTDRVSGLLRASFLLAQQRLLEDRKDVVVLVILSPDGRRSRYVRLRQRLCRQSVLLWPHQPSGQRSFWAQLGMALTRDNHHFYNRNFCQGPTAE
The assay is described as follows: Inhibition of human TLR9 in human B cells (IL-6 ELISA). The note with it: for IC50: human B cells, agonist 1018 ISS 1 μM; for inhibits TLR9-dependent responses (in words): summary statement of the description. It is filed as cell-based. The procedure, abridged:
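Primary human B cells (CD19-isolated from donor buffy coats), ~300,000 per well, treated with compound (about 0.01–10 μM, some 0.001–30 μM) then 1 μM CpG oligonucleotide 1018 ISS. After 48 hours at 37° C, supernatant IL-6 measured by ELISA; IC50 from concentration-response of TLR9-dependent activity.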

In another assay the target is T2, human TLR8 (Homo sapiens, UniProt Q9NR97).
T2 construct: endogenous in cells; host or cells: primary human monocytes (CD14 microbeads) from buffy coats of healthy donors
T2 sequence (Q9NR97 27-1041): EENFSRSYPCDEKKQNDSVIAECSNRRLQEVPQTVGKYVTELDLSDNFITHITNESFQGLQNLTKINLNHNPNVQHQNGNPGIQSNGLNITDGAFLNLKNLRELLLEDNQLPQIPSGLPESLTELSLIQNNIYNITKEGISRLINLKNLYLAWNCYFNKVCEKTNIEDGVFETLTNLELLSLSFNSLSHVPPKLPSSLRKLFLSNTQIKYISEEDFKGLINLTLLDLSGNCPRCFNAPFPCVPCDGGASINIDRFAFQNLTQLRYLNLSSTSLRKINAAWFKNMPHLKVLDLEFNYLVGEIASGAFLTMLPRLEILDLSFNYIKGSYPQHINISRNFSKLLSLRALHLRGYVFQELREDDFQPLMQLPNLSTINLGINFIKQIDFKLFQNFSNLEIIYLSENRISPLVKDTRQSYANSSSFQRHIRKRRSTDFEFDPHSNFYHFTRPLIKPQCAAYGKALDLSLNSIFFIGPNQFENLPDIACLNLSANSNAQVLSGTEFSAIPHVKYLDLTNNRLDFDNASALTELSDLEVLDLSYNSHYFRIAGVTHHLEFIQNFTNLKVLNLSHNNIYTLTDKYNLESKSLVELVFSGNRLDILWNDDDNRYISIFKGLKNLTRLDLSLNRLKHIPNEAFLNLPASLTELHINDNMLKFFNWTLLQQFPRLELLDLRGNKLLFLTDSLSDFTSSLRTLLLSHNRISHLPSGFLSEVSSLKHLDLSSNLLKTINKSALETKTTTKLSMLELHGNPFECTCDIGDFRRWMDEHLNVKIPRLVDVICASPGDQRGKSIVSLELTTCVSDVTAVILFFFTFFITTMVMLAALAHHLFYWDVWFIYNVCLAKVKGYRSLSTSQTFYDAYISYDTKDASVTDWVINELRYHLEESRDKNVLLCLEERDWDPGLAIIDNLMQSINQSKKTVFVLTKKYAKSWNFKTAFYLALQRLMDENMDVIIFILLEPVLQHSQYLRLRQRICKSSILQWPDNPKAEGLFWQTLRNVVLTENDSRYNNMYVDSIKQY
The assay is described as follows: Inhibition of human TLR8 in human monocytes (TNF-alpha / IL-1 beta ELISA). It is filed as cell-based. The note with it: for IC50: human monocytes, agonist ORN8L 100 μg/mL, 24 hours. The essentials:
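Primary human monocytes from donor buffy coats (~200,000 cells/well) given serially diluted compound, then ORN8L RNA oligonucleotide agonist at 100 μg/mL final. After 24 h at 37 °C, supernatant TNF-alpha and/or IL-1 beta measured by ELISA; IC50 from the concentration-response of cytokine release.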

[1] abbreviates: IL-6 readout, 48 hours, range about 0.01 to 10 μM, read-out: Human TLR9 IC50.
The mark [2] stands for this setting: IL-1 beta readout, read-out: Human TLR8 IC50 IL-1b.
Setting [3] is: TNF-alpha readout, read-out: Human TLR8 IC50 TNF-a.

Where two headings read alike, the source gives them in different places.

`Cc1ccc(-n2nc3c(N4CCC(C(=O)N[C@H]5C[C@H](N(C)C)C5)CC4)nnc(C)c3c2C)cc1` [Compound No. 12a, 1-(3,4-dimethyl-2-(p-tolyl)-2H-pyrazolo[3,4-d]pyridazin-7-yl)-N-((1r,3r)-3-(dimethylamino)cyclobutyl)piperidine-4-carboxamide]: the IC50 is 71 nM on human TLR9 (setting [1]), greater than 10000 nM on human TLR8 (setting [2]) and greater than 10000 nM at human TLR8 (setting [3]).

With `Cc1ccc(-n2nc3c(N4CCN(C(=O)NCCCN(C)C)CC4)nnc(C)c3c2C)cc1` [Compound No. 76, 4-(3,4-dimethyl-2-(p-tolyl)-2H-pyrazolo[3,4-d]pyridazin-7-yl)-N-(3-(dimethylamino)propyl)piperazine-1-carboxamide], the concentration for half-maximal inhibition (IC50) was 118 nM on human TLR9 (setting [1]) and 11700 nM on human TLR8 (setting [3]).

`Cc1ccc(-n2nc3c(N4CCC(C(=O)NCCCN(C)C)CC4)nnc(Cl)c3c2C)cc1` [compound 36, 1-(4-chloro-3-methyl-2-(p-tolyl)-2H-pyrazolo[3,4-d]pyridazin-7-yl)-N-(3-(dimethylamino)propyl)piperidine-4-carboxamide]: the results for the IC50 at human TLR9 (setting [1]) and at human TLR8 (setting [3]) were 1150 nM and 7680 nM, respectively.

Take `Cc1nnc(N2CCC(C(=O)NCCCN(C)C)CC2)c2nn(C3CCOCC3)c(C)c12` [compound 25, 1-(3,4-dimethyl-2-(tetrahydro-2H-pyran-4-yl)-2H-pyrazolo[3,4-d]pyridazin-7-yl)-N-(3-(dimethylamino)propyl)piperidine-4-carboxamide]: the half-maximal inhibitory concentration (IC50) on human TLR9 (setting [1]) was greater than 10000 nM; on human TLR8 (setting [3]), no less than 20000 nM.

Take `Cc1ccc(-n2nc3c(N4CC(C(=O)NCCCN(C)C)C4)nnc(C)c3c2C)cc1` [compound 15, 1-(3,4-dimethyl-2-(p-tolyl)-2H-pyrazolo[3,4-d]pyridazin-7-yl)-N-(3-(dimethylamino)propyl)azetidine-3-carboxamide]: the figures for the IC50 at human TLR9 (setting [1]), at human TLR8 (setting [2]) and at human TLR8 (setting [3]) were 250 nM, greater than 10000 nM and greater than 10000 nM, respectively.

Turning to `Cc1ccc(-n2nc3c(N4CCC(C(=O)NCCCN5CCOCC5)CC4)nnc(C)c3c2C)cc1` [Compound No. 19x, 1-(3,4-dimethyl-2-(p-tolyl)-2H-pyrazolo[3,4-d]pyridazin-7-yl)-N-(3-morpholinopropyl)piperidine-4-carboxamide], the IC50 at human TLR9 (setting [1]) amounted to 18 nM; on human TLR8 (setting [2]) it was 740 nM; at human TLR8 (setting [3]) it was 740 nM. Besides, at human TLR9, the “inhibits TLR9-dependent responses (in words)” value is listed as “inhibit”.

For `Cc1ccc(-n2cc3cnnc(N4CCC(C(=O)NC5CN(C)C5)CC4)c3n2)cc1` [compound 62, N-(1-methylazetidin-3-yl)-1-(2-(p-tolyl)-2H-pyrazolo[3,4-d]pyridazin-7-yl)piperidine-4-carboxamide], the half-inhibitory concentration (IC50) at human TLR9 (setting [1]) came to 21 nM; on human TLR8 (setting [3]) it was 3840 nM.

Consider `Cc1ccc(-n2nc3c(N4CCC(C(=O)NCCCN(C)C)CC4)nncc3c2C)cc1` [compound 42, N-(3-(dimethylamino)propyl)-1-(3-methyl-2-(p-tolyl)-2H-pyrazolo[3,4-d]pyridazin-7-yl)piperidine-4-carboxamide], for which the 50% inhibitory concentration (IC50) is 133 nM on human TLR9 (setting [1]) and no less than 20000 nM at human TLR8 (setting [3]).

As for `Cc1ccc(-n2cc3cnnc(N4CCCC(C(=O)NCCN(C)C)C4)c3n2)cc1` (centres unmarked) [compound 47, N-(2-(dimethylamino)ethyl)-1-(2-(p-tolyl)-2H-pyrazolo[3,4-d]pyridazin-7-yl)piperidine-3-carboxamide], the IC50 at human TLR9 (setting [1]) stood at 27 nM; on human TLR8 (setting [3]), 2620 nM.

`COc1ccc(-n2nc3c(N4CCCC(C(=O)NCCN(C)C)C4)nnc(C)c3c2C)cc1` (centres unmarked) [54x, N-(2-(dimethylamino)ethyl)-1-(2-(4-methoxyphenyl)-3,4-dimethyl-2H-pyrazolo[3,4-d]pyridazin-7-yl)piperidine-3-carboxamide]: the values for the IC50 at human TLR9 (setting [1]), at human TLR8 (setting [2]) and at human TLR8 (setting [3]) were 4 nM, 740 nM and 290 nM, respectively. The “inhibits TLR9-dependent responses (in words)” value against human TLR9 was “inhibit”. Further, the “inhibits TLR8-dependent responses (in words)” value on human TLR8 (summary statement of the description) was “inhibit”.

Regarding `Cc1ccc(-n2cc3cnnc(N4CCC(C(=O)NCCCN(C)C)CC4)c3n2)cc1` [Compound No. 29, N-(3-(dimethylamino)propyl)-1-(2-(p-tolyl)-2H-pyrazolo[3,4-d]pyridazin-7-yl)piperidine-4-carboxamide], the results for the half-maximal inhibitory concentration (IC50) at human TLR9 (setting [1]), on human TLR8 (setting [2]) and on human TLR8 (setting [3]) were 7 nM, 1610 nM and greater than 10000 nM, respectively. For the same molecule, the “inhibits TLR9-dependent responses (in words)” value against human TLR9 is “inhibit”.

Take `CCN(CC)C1CCN(C(=O)C2CCN(c3nnc(C)c4c(C)n(-c5ccc(C)cc5)nc34)CC2)CC1` [compound 43, (4-(diethylamino)piperidin-1-yl)(1-(3,4-dimethyl-2-(p-tolyl)-2H-pyrazolo[3,4-d]pyridazin-7-yl)piperidin-4-yl)methanone]: the IC50 at human TLR9 (IL-6, 48 hours, expanded dilution series about 0.001 to 30 μM, read-out: Human TLR9 IC50, expanded dilution series) is 13 nM; at human TLR9 (setting [1]), 1 nM; at human TLR8 (setting [3]), no less than 20000 nM. In addition, on human TLR9, the “inhibits TLR9-dependent responses (in words)” value is “inhibit”.

Regarding `Cc1ccc(-n2nc3c(N4CCC(C(=O)N5CCC(N6CCOCC6)CC5)CC4)nnc(C)c3c2C)cc1` [compound 69, (1-(3,4-dimethyl-2-(p-tolyl)-2H-pyrazolo[3,4-d]pyridazin-7-yl)piperidin-4-yl)(4-morpholinopiperidin-1-yl)methanone], the values for the IC50 at human TLR9 (setting [1]) and at human TLR8 (setting [3]) were 253 nM and 3840 nM, respectively.

For `Cc1ccc(-n2nc3c(N4CCCC(C(=O)NCCNC(C)C)C4)nnc(C)c3c2C)cc1` (centres unmarked) [compound 16, 1-(3,4-dimethyl-2-(p-tolyl)-2H-pyrazolo[3,4-d]pyridazin-7-yl)-N-(2-(isopropylamino)ethyl)piperidine-3-carboxamide], the half-maximal inhibitory concentration (IC50) at human TLR9 (setting [1]) was 46 nM; on human TLR8 (setting [3]), no less than 20000 nM.

Take `Cc1nnc(N2CCC(C(=O)NCCCN(C)C)CC2)c2nn(-c3cccnc3)c(C)c12` [compound 23, 1-(3,4-dimethyl-2-(pyridin-3-yl)-2H-pyrazolo[3,4-d]pyridazin-7-yl)-N-(3-(dimethylamino)propyl)piperidine-4-carboxamide]: the half-maximal inhibitory concentration (IC50) is greater than 10000 nM on human TLR9 (setting [1]) and no less than 20000 nM on human TLR8 (setting [3]).
